Ends that are not written are not given here.
Tests used:
[1] = system: Lewis rats; experiment: Antigenicity and cross-reactivity in rats inoculated with marker-KLH conjugates, serum ELISA (Example 7); format: in vivo, rat; settings: for Relative Absorbance ±SE at 405 nm, Candidate Marker RBM1 / Relative Absorbance ±SE at 405 nm, Candidate Marker RBM4 / Relative Absorbance ±SE at 405 nm, Candidate Marker RBM5 / Relative Absorbance ±SE at 405 nm, Candidate Marker RBM6: Table 4, N = 3, rats inoculated with marker-KLH conjugate, ** P < .01; for Relative Absorbance ±SE at 405 nm, Candidate Marker RBM1: ELISA against RBM1; for Relative Absorbance ±SE at 405 nm, Candidate Marker RBM4: ELISA against RBM4; for Relative Absorbance ±SE at 405 nm, Candidate Marker RBM5: ELISA against RBM5; for Relative Absorbance ±SE at 405 nm, Candidate Marker RBM6: ELISA against RBM6; for Candidate Marker Antibody Reactivity RBM1 / Candidate Marker Antibody Reactivity RBM2 / Candidate Marker Antibody Reactivity RBM4 / Candidate Marker Antibody Reactivity RBM5 / Candidate Marker Antibody Reactivity RBM6 / Candidate Marker Antibody Reactivity RBM7: Table 3; for Candidate Marker Antibody Reactivity RBM1: serum (1/100) of Lewis rats inoculated s.c. with 1.0 mg marker-KLH conjugate in Freund's incomplete adjuvant, day 14-21, ELISA wells coated with RBM1; for Candidate Marker Antibody Reactivity RBM2 / Candidate Marker Antibody Reactivity RBM4 / Candidate Marker Antibody Reactivity RBM5 / Candidate Marker Antibody Reactivity RBM6 / Candidate Marker Antibody Reactivity RBM7: serum (1/100) of Lewis rats inoculated with marker-KLH conjugate; for Candidate Marker Antibody Reactivity RBM2: ELISA wells coated with RBM2; for Candidate Marker Antibody Reactivity RBM4: ELISA wells coated with RBM4; for Candidate Marker Antibody Reactivity RBM5: ELISA wells coated with RBM5; for Candidate Marker Antibody Reactivity RBM6: ELISA wells coated with RBM6; for Candidate Marker Antibody Reactivity RBM7: ELISA wells coated with RBM7; for Cross-reactivity among the candidate markers: text summary of Table 3, rat sera after marker-KLH inoculation
[2] = system: rats; experiment: Antigenicity in rats inoculated with free marker peptides, serum ELISA (Example 8); format: in vivo, rat; settings: Table 5; for Candidate Marker Antibody Reactivity RBM1: rats inoculated with 1 mg free peptide (not KLH-conjugated) in Freund's incomplete adjuvant, ELISA against RBM1; for Candidate Marker Antibody Reactivity RBM2 / Candidate Marker Antibody Reactivity RBM3 / Candidate Marker Antibody Reactivity RBM4 / Candidate Marker Antibody Reactivity RBM5 / Candidate Marker Antibody Reactivity RBM6 / Candidate Marker Antibody Reactivity RBM7: rats inoculated with free peptide; for Candidate Marker Antibody Reactivity RBM2: ELISA against RBM2; for Candidate Marker Antibody Reactivity RBM3: ELISA against RBM3; for Candidate Marker Antibody Reactivity RBM4: ELISA against RBM4; for Candidate Marker Antibody Reactivity RBM5: ELISA against RBM5; for Candidate Marker Antibody Reactivity RBM6: ELISA against RBM6; for Candidate Marker Antibody Reactivity RBM7: ELISA against RBM7; for Antigenicity (measurable antibody response) of free marker peptide / Interference and cross-reaction with other marker candidates: rats; for Antigenicity (measurable antibody response) of free marker peptide: free peptide not conjugated to KLH; for Interference and cross-reaction with other marker candidates: free peptide
[3] = system: human sera; experiment: ELISA cross-reactivity of candidate markers with human sera (Example 9); settings: human serum diluted 1/1000, goat anti-human-HRP, non-specific binding subtracted
Method: Four samples of human sera were obtained with appropriate consent. 20 The frozen samples of cell-free sera were thawed and diluted to 1/1000 in phosphate buffered saline at pH 7.0. Aliquots (100 ul) of these diluted antisera were added to ELISA plates pre-adsorbed with the biomarkers as described in Table 1. A goat anti-human-HRP secondary antibody was used to quantitate the amount of antibody bound to the various marker peptides. Non-specific binding (determined by plating antisera onto PVA coated wells) was subtracted from the readings of the individual marker wells.

[4] = system: polyclonal sera against a range of infectious agents and hormones; experiment: ELISA cross-reactivity screen, whole panel of antisera; format: binding; settings: whole panel of 12 antisera

Substance	Relative Absorbance ±SE at 405 nm, Candidate Marker RBM1 [1]	Relative Absorbance ±SE at 405 nm, Candidate Marker RBM4 [1]	Relative Absorbance ±SE at 405 nm, Candidate Marker RBM5 [1]	Relative Absorbance ±SE at 405 nm, Candidate Marker RBM6 [1]	Candidate Marker Antibody Reactivity RBM1 [2]	Candidate Marker Antibody Reactivity RBM2 [2]	Candidate Marker Antibody Reactivity RBM3 [2]	Candidate Marker Antibody Reactivity RBM4 [2]	Candidate Marker Antibody Reactivity RBM5 [2]	Candidate Marker Antibody Reactivity RBM6 [2]	Candidate Marker Antibody Reactivity RBM7 [2]	Antigenicity (measurable antibody response) of free marker peptide [2]	Candidate Marker Antibody Reactivity, Serum Sample 1 [3]	Candidate Marker Antibody Reactivity, Serum Sample 2 [3]	Candidate Marker Antibody Reactivity, Serum Sample 3 [3]	Candidate Marker Antibody Reactivity, Serum Sample 4 [3]	Candidate Marker Antibody Reactivity RBM1 [1]	Candidate Marker Antibody Reactivity RBM2 [1]	Candidate Marker Antibody Reactivity RBM4 [1]	Candidate Marker Antibody Reactivity RBM5 [1]	also measured
YFMYRRYFMYRR [RBM1]	.55 ± .15**	−.11 ± .14	.11 ± .05	.05 ± .07	.00	.20	−.05	−.04	.1	−.10	.14	failed to produce measurable immunity	.16	.01	.08	.01	–	–	–	–	–
EGVYVPV [RBM5, peptide derived from the 5→3 reading of the cDNA encoding angiotensin II; T3 prints Glu-Gly-Val-Tyr-Val-His-Pro-Val]	.57 ± .25	.15 ± .07	1.5 ± .44**	.50 ± .02	–	–	–	–	–	–	–	–	.22	.21	−.02	−.01	−.018	.068	−.231	.101	Candidate Marker Antibody Reactivity RBM6 [1]: .006; Candidate Marker Antibody Reactivity RBM7 [1]: −.058; Cross-reactivity among the candidate markers [1]: cross-react weakly, but consistently
RLAHMYVGKT [RBM4, antisense peptide from angiotensin II complementary DNA, 3→5 direction; KLH conjugate for inoculation]	.21 ± .06	2.26 ± .40**	.24 ± .23	.32 ± .07	–	–	–	–	–	–	–	–	.08	.20	−.16	−.02	−.009	.020	.079	.003	Recognition by any antiserum tested [4]: did not cross-react; Candidate Marker Antibody Reactivity RBM6 [1]: −.035; Candidate Marker Antibody Reactivity RBM7 [1]: −.030
HRNYFHRNYF [RBM2]	–	–	–	–	−.02	3.34	−.07	−.01	.05	−.23	−.05	sufficiently antigenic to produce a measurable and consistent antibody response	.26	.05	.27	−.01	.034	.219	−.037	.041	Candidate Marker Antibody Reactivity RBM6 [1]: −.006; Candidate Marker Antibody Reactivity RBM7 [1]: .002; Cross-reactivity among the candidate markers [1]: cross-react weakly, but consistently; Interference and cross-reaction with other marker candidates [2]: did not interfere with each other's immune responses nor cross-react with other marker candidates
WPHDMCWP [RBM7]	–	–	–	–	−.10	.22	−.06	−.12	.06	−.10	.63	sufficiently antigenic to produce a measurable and consistent antibody response	−.11	.00	.04	−.02	–	–	–	–	Interference and cross-reaction with other marker candidates [2]: did not interfere with each other's immune responses nor cross-react with other marker candidates
WFYMYFWFYMYF [RBM3]	–	–	–	–	–	–	–	–	–	–	–	–	.07	.05	−.07	−.01	–	–	–	–	–
HWRWRMRMHWRWRMRM [RBM6]	.12 ± .03	.02 ± .04	−07 ± .15	.84 ± .13**	−.07	.39	.02	−.06	.19	−.01	.12	failed to produce measurable immunity	.22	.24	−.09	−.03	–	–	–	–	–

From US20060216302A1, “Immunological markers” (priority 2003, published 2006)
